Laboratory results: patent US12077503B2, “Substituted cyclic amides and their use as herbicides” (FMC CORPORATION, priority 2015, dated 2024)

What was measured:
Format in all cases: in vivo
[1] = system: barnyardgrass (Echinochloa crus-galli); experiment: Test B flooded paddy test; conditions: Flood, 250 g ai/ha; 0 to 100 scale where 0 is no effect and 100 is complete control; 13 to 15 d
How it was run: (§1)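 Evaluation by eye, against controls, occurred 13–15 d post-treatment in a greenhouse, using a 0 (no effect) to 100 (complete control) scale. Application was into the paddy water, 3 cm deep over the soil, on 2-leaf plants.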

[2] = system: ducksalad (Heteranthera limosa); experiment: Test B flooded paddy test; conditions: Flood, 250 g ai/ha; 0 to 100 scale where 0 is no effect and 100 is complete control; 13 to 15 d
How it was run: as §1

rice (Oryra sativa) = experiment: Test B flooded paddy test; conditions: Flood, 250 g ai/ha; 0 to 100 scale where 0 is no effect and 100 is complete control; 13 to 15 d
How it was run: as §1

[3] = system: sedge, umbrella (small-flower umbrella sedge, Cyperus difformis); experiment: Test B flooded paddy test; conditions: Flood, 250 g ai/ha; 0 to 100 scale where 0 is no effect and 100 is complete control; 13 to 15 d
How it was run: as §1

[4] = system: barnyardgrass (Echinochloa crus-galli); experiment: Test A postemergence
How it was run: (§2)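 In a loam soil and sand blend, planted seeds got a preemergence directed soil spray, and young plants at the one- to two-leaf stage, 2–10 cm high, got a postemergence application; ~10 d greenhouse hold; injury rated visually, 0 = none, 100 = complete control.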

[5] = system: pigweed (Amaranthus retroflexus); experiment: Test A postemergence
How it was run: as §2

[6] = system: ryegrass, Italian (Italian ryegrass, Lolium multiflorum); experiment: Test A postemergence
How it was run: as §2

[7] = system: ragweed (common ragweed, Ambrosia elatior); experiment: Test A postemergence
How it was run: as §2

[8] = system: giant foxtail (Setaria faberii); experiment: Test A postemergence
How it was run: as §2

[9] = system: Galium (catchweed bedstraw, Galium aparine); experiment: Test A postemergence
How it was run: as §2

[10] = system: blackgrass (Alopecurus myosuroides); experiment: Test A postemergence
How it was run: as §2

Kochia (Kochia scoparia) [11] = experiment: Test A postemergence
How it was run: as §2

corn (Zea mays) = experiment: Test A postemergence
How it was run: as §2

[12] = system: wheat (Triticum aestivum); experiment: Test A postemergence
How it was run: as §2

[13] = system: barnyardgrass (Echinochloa crus-galli); experiment: Test A preemergence
How it was run: as §2

[14] = system: pigweed (Amaranthus retroflexus); experiment: Test A preemergence
[15] = system: ryegrass, Italian (Italian ryegrass, Lolium multiflorum); experiment: Test A preemergence
How it was run: as §2

[16] = system: ragweed (common ragweed, Ambrosia elatior); experiment: Test A preemergence
How it was run: as §2

[17] = system: giant foxtail (Setaria faberii); experiment: Test A preemergence
How it was run: as §2

Kochia (Kochia scoparia) [18] = experiment: Test A preemergence
How it was run: as §2

[19] = 125 g ai/ha, postemergence, visual rating after approx. 10 d, 0 to 100 scale (0 no effect, 100 complete control)
[20] = Postemergence, 500 g ai/ha, 0 to 100 scale where 0 is no effect and 100 is complete control
[21] = 125 g ai/ha, Preemergence, visual injury after approximately 10 d, 0 to 100 scale where 0 is no effect and 100 is complete control
[22] = 500 g ai/ha, preemergence, 0 to 100 scale, 0 = no effect, 100 = complete control
[23] = 500 g ai/ha, postemergence, visual injury, 0 to 100 scale (0 no effect, 100 complete control), approx. 10 d

Structure (SMILES) | Plant response rating, Barnyardgrass [1] | Plant response rating, Ducksalad [2] | Plant response rating, Rice (rice (Oryra sativa)) | Plant response rating, Sedge, Umbrella [3] | Plant response rating, Barnyardgrass [4, 19] | Plant response rating, Pigweed [5, 19] | Plant response rating, Ryegrass, Italian [6, 19] | Plant response rating, Ragweed [7, 19] | Plant response rating, Foxtail, Giant [8, 19] | Plant response rating, Galium [9, 19] | Plant response rating, Blackgrass [10, 19] | Plant response rating, Kochia (Kochia (Kochia scoparia) [11]; [19]) | Plant response rating, Corn (corn (Zea mays); [19]) | Plant response rating, Wheat [12, 19] | Plant response rating, Barnyardgrass [13, 21] | Plant response rating, Barnyardgrass [13, 22] | Plant response rating, Pigweed [14, 21] | Plant response rating, Pigweed [14, 22] | Plant response rating, Ryegrass, Italian [15, 21] | Plant response rating, Ryegrass, Italian [15, 22] | further results
CN1CC(c2ccc(F)c(C(F)(F)F)c2)C(C(=O)Nc2ccccc2S(C)(=O)=O)C1=O (stereo not drawn) [Compound 612] | 65 | 100 | 15 | 85 | 70 | 20 | 20 | 0 | 70 | 30 | 40 | 20 | 50 | 30 | 90 | 90 | 70 | 70 | 50 | 70 | Plant response rating, Barnyardgrass [4, 20]: 90; Plant response rating, Pigweed [5, 20]: 50; Plant response rating, Ryegrass, Italian [6, 20]: 70; Plant response rating, Ragweed [7, 20]: 20; Plant response rating, Foxtail, Giant [8, 20]: 90; Plant response rating, Galium [9, 20]: 50; Plant response rating, Blackgrass [10, 20]: 60; Plant response rating, Kochia (Kochia (Kochia scoparia) [11]; [20]): 40; Plant response rating, Corn (corn (Zea mays); [20]): 90; Plant response rating, Wheat [12, 20]: 30; Plant response rating, Ragweed [16, 21]: 50; Plant response rating, Ragweed [16, 22]: 50; Plant response rating, Foxtail, Giant [17, 21]: 90; Plant response rating, Foxtail, Giant [17, 22]: 90; Plant response rating, Kochia (Kochia (Kochia scoparia) [18]; [21]): 20; Plant response rating, Kochia (Kochia (Kochia scoparia) [18]; [22]): 20
CN1CC(c2cccc(OC(F)F)c2)C(C(=O)Nc2ccc(F)cc2F)C1=O (stereo not drawn) [Compound 617] | 90 | 100 | 10 | 0 | 90 | 30 | 20 | 20 | 90 | 60 | 40 | 50 | 80 | 50 | 90 | 90 | 90 | 90 | 70 | 90 | Plant response rating, Barnyardgrass [4, 20]: 90; Plant response rating, Pigweed [5, 20]: 50; Plant response rating, Ryegrass, Italian [6, 20]: 50; Plant response rating, Ragweed [7, 20]: 50; Plant response rating, Foxtail, Giant [8, 20]: 90; Plant response rating, Galium [9, 20]: 60; Plant response rating, Blackgrass [10, 20]: 60; Plant response rating, Kochia (Kochia (Kochia scoparia) [11]; [20]): 60; Plant response rating, Corn (corn (Zea mays); [20]): 80; Plant response rating, Wheat [12, 20]: 60; Plant response rating, Ragweed [16, 21]: 30; Plant response rating, Ragweed [16, 22]: 60; Plant response rating, Foxtail, Giant [17, 21]: 90; Plant response rating, Foxtail, Giant [17, 22]: 100; Plant response rating, Kochia (Kochia (Kochia scoparia) [18]; [21]): 70; Plant response rating, Kochia (Kochia (Kochia scoparia) [18]; [22]): 70
CN1CC(c2ccc(F)c(F)c2)C(C(=O)Nc2ccccc2S(C)(=O)=O)C1=O (stereo not drawn) [Compound 640] | 30 | 100 | 25 | 0 | 90 | 0 | 0 | 0 | 80 | 40 | 0 | 0 | 0 | 0 | 90 | 90 | 80 | 90 | 20 | 50 | Plant response rating, Barnyardgrass [4, 23]: 90; Plant response rating, Pigweed [5, 23]: 20; Plant response rating, Ryegrass, Italian [6, 23]: 0; Plant response rating, Ragweed [7, 23]: 0; Plant response rating, Foxtail, Giant [8, 23]: 90; Plant response rating, Galium [9, 23]: 50; Plant response rating, Blackgrass [10, 23]: 50; Plant response rating, Kochia (Kochia (Kochia scoparia) [11]; [23]): 40; Plant response rating, Corn (corn (Zea mays); [23]): 0; Plant response rating, Wheat [12, 23]: 50; Plant response rating, Ragweed [16, 21]: 40; Plant response rating, Ragweed [16, 22]: 60; Plant response rating, Foxtail, Giant [17, 21]: 90; Plant response rating, Foxtail, Giant [17, 22]: 90; Plant response rating, Kochia (Kochia (Kochia scoparia) [18]; [21]): 50; Plant response rating, Kochia (Kochia (Kochia scoparia) [18]; [22]): 60
